Literature values as cited in US20080033027A1, “Drug combination pharmaceutical compositions and methods for using them” (VICUS THERAPEUTICS SPE 1, LLC, priority 2005, published 2008).
Counter-ions that a name gives are not always drawn. Like-named read-outs stand apart in the source and are kept apart here.

Columns and labels:
[1] = for Elimination (% unchanged): value in parentheses; for Elimination, Renal (%): share eliminated by the renal route; for Elimination, Biliary/fecal (%): share eliminated by the biliary/fecal route
[2] = for solubility in ethanol / alcohol: alcohol(s)
[3] = oral EPA, after entering the blood stream
[4] = tested on: cachectic severely burned children; cachectic metastatic cancer patients
[5] = cachectic metastatic cancer patients
[6] = cachectic severely burned children

Structure (SMILES)	Half-life ([1]; in vivo)	Biotransformation ([1]; in vivo)	Elimination (route) ([1]; in vivo)	Oral Absorp. (%) ([1]; in vivo)	Elimination (% unchanged) [1]	Removable by Hemodialysis ([1]; in vivo)	Elimination, Renal (%) [1]	Time to Peak Effect Single dose [1]	further results
COCCc1ccc(OCC(O)CNC(C)C)cc1 (stereo not shown) [Metoprolol]	3 to 7 h								
CCc1cccc2c3c([nH]c12)C(CC)(CC(=O)O)OCC3 (single isomer, unassigned; (+)) [Etodolac, (+) 1,8-diethyl-1,3,4,9-tetrahydropyrano-[3,4-b]indole-1-acetic acid]									solubility in ethanol / alcohol [2]: soluble; solubility in water [2]: insoluble; GI complications rate (among non-specific Cox inhibitors): lowest; cardiovascular events (compared with specific cox2 inhibitors): without the reported increase
CC(C)NCC(O)COc1ccc(CCOCC2CC2)cc1 (stereo not shown) [Betaxolol]	14 to 22 h	Hepatic		80-89%	15%	No	> 80%	3 to 4 h	
CC(C)NCC(O)COc1cccc2[nH]ccc12 (stereo not shown) [Pindolol]	3 to 4 h		Renal	90-100%	40%				
CC(C)NCC(O)COc1ccc(CC(N)=O)cc1 (stereo not shown) [Atenolol]				50-60%			85-100%	2 to 4 h	
CC(C)(C)NCC(O)COc1cccc2c1CC(O)C(O)C2 (stereo not shown) [Nadolol]	20 to 24 h	None	Renal	30%	70%	Yes		4 h	Half-life ([1]; stated in the text): 10 to 24 h; route of elimination ([1]; stated in the text): kidney excreted
CC(C)(C)NC[C@H](O)COc1ccccc1C1CCCC1 [Penbutolol]	5 h	Hepatic		100%	0%	No	90%	1.5 to 3 h	
CC/C=C\C/C=C\C/C=C\C/C=C\C/C=C\CCCC(=O)O [EPA, eicosapentaenoic acid]									cleared in the first pass (liver) [3]: ≤ 90%
CCCC(=O)Nc1ccc(OCC(O)CNC(C)C)c(C(C)=O)c1 (stereo not shown) [Acebutolol]	3 to 4 h			70%			30-40%		Elimination, Biliary/fecal (%) [1]: 50-60%
CC(C)NCC(O)COc1cccc2ccccc12.Cl (stereo not drawn) [Propranolol, 2-Propanol, 1-[(1-methylethyl)amino]-3-(1-naphthalenyloxy)-, hydrochloride, (+)-]	3 to 5 h								stability of the solid ([2]; crystalline solid): stable; solubility in ethanol / alcohol [2]: readily soluble; solubility in water [2]: readily soluble; adverse events ([4]; both previous trials): No adverse events were reported; elevated inflammatory cytokines [4, 5]: reduction; elevated resting energy expenditure [4, 5]: reduction; elevated inflammatory cytokines [4, 6]: reduction; elevated resting energy expenditure [4, 6]: reduction; rate of loss of lean body mass [4, 6]: reduction
CC(C)(C)NCC(O)COc1cccc2c1CCC(=O)N2 (stereo not shown) [Carteolol]	6 h	Hepatic	Renal	85%	(50-70) %			1 to 3 h	
COCCc1ccc(OCC(O)CNC(C)C)cc1 (racemic) [Metoprolol succinate, (±)1-(isopropylamino)-3-[p-(2-methoxyethyl)phenoxy]-2-propanol succinate (2:1) (salt)]									solubility in ethanol / alcohol [2]: sparingly soluble; solubility in water [2]: freely soluble
COCCc1ccc(OCC(O)CNC(C)C)cc1 (racemic) [Metoprolol tartrate, (±)-1-(isopropylamino)-3-(p-(2-(methoxyethyl)phenoxy)-2-propanol (2:1) dextrotartrate salt]									solubility in ethanol / alcohol [2]: freely soluble; solubility in water [2]: very soluble

Second part, led by results:

Half-life ([1]; in vivo)	Biotransformation ([1]; in vivo)	Elimination (route) ([1]; in vivo)	Oral Absorp. (%) ([1]; in vivo)	Elimination (% unchanged) [1]	Removable by Hemodialysis ([1]; in vivo)	Elimination, Renal (%) [1]	Time to Peak Effect Single dose [1]	Structure (SMILES)	further results
1.3 to 1.5 h	Hepatic	Renal	90%	< 5%				C=CCOc1ccccc1OCC(O)CNC(C)C (stereo not shown) [Oxprenolol]	
7 to 18 h		Renal	>80%	75%				CC(C)NCC(O)c1ccc(NS(C)(=O)=O)cc1 (stereo not shown) [Sotalol]	
9 to 12 h	Hepatic	Renal	80-90%	50%	No			CC(C)NCC(O)COc1ccc(COCCOC(C)C)cc1 (stereo not shown) [Bisoprolol]	Elimination, Biliary/fecal (%) [1]: <2% Fecal; Half-life ([1]; stated in the text): 10 to 12 h
	Hepatic	Biliary/fecal	100%	< 5%	No	55-60%		CC(CCc1ccccc1)NCC(O)c1ccc(O)c(C(N)=O)c1 (stereo not shown) [Labetalol]	Half-life (hr) ([1]; IV): ~5.5 IV hr; Half-life (hr) ([1]; oral): 6-8 oral hr; Time to Peak Effect Single dose ([1]; IV): 0.083 h (IV); Time to Peak Effect Single dose ([1]; oral): 2 to 4 h
7 to 10 h	Hepatic		25-35%		No	<2% Renal		COc1ccccc1OCCNCC(O)COc1cccc2[nH]c3ccccc3c12 (stereo not shown) [Carvedilol]	
4 h	Hepatic		90%	20%	No		1 to 2 h	CC(C)(C)NC[C@H](O)COc1nsnc1N1CCOCC1 [Timolol]	Elimination (route) ([1]; in vivo, fecal elimination): Fecal; Elimination (route) ([1]; in vivo, renal elimination): Renal
